Target: PRC2 complex (EZH2 Y641F/EED/SUZ12/RbAp48/AEBP2) (Homo sapiens (Human), UniProt Q15910, Y641F)
Assay: Activity of a compound to PRC2 complex (EZH2 Y641F), HTRF
Settings: not given

Sequence of PRC2 complex (EZH2 Y641F/EED/SUZ12/RbAp48/AEBP2) (Q15910 whole entry Y641F): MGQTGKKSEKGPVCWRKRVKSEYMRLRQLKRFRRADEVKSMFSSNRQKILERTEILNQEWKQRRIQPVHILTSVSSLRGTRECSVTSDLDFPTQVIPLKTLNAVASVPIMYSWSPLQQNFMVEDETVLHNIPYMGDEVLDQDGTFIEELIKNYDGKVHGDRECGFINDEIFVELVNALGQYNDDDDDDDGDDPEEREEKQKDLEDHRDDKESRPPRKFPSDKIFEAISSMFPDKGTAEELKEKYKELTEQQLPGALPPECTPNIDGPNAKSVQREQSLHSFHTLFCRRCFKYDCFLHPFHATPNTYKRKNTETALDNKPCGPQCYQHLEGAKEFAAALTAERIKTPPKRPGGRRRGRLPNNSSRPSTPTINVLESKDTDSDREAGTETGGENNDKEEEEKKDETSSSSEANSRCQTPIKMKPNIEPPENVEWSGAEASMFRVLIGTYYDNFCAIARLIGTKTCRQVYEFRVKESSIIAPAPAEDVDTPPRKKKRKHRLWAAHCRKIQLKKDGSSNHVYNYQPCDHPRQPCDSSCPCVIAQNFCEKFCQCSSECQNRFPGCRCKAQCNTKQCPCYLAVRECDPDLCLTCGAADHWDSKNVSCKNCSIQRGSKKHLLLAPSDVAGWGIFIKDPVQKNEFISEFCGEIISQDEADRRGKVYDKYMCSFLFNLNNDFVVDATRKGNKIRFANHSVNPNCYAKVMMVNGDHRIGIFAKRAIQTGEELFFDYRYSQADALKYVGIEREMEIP
Sequence of PRC2 complex (EZH2 Y641F/EED/SUZ12/RbAp48/AEBP2) (O75530 whole entry partner): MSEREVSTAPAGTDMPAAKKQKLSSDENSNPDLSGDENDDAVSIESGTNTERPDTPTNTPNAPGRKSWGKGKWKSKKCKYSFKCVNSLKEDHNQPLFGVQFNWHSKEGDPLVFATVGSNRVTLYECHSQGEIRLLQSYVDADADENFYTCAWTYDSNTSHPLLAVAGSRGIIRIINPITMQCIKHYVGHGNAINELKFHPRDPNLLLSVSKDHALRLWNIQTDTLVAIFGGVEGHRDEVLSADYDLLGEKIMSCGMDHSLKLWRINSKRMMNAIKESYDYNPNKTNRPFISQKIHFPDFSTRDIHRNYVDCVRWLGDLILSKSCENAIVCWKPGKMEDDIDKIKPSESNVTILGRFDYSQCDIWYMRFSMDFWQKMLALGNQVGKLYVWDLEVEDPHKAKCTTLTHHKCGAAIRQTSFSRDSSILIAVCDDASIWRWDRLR
Sequence of PRC2 complex (EZH2 Y641F/EED/SUZ12/RbAp48/AEBP2) (Q15022 whole entry partner): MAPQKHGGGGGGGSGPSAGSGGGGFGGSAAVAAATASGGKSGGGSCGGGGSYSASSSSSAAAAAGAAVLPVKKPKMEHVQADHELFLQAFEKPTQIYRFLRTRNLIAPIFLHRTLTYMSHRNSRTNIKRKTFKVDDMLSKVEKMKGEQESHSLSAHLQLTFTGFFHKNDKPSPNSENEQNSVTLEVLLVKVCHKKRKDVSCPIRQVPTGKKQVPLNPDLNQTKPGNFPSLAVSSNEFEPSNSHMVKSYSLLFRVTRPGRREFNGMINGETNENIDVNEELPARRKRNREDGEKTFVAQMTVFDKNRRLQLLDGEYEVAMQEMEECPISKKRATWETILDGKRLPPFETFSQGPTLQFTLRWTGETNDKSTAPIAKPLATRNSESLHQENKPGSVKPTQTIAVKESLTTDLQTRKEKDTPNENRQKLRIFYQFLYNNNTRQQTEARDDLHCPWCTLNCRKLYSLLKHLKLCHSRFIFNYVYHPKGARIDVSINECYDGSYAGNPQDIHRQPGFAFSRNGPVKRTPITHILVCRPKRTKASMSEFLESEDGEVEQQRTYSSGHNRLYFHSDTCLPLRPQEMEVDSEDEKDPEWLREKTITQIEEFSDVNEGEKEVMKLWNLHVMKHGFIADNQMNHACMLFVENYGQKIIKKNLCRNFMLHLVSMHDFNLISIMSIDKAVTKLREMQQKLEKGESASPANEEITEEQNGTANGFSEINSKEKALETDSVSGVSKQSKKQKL
Sequence of PRC2 complex (EZH2 Y641F/EED/SUZ12/RbAp48/AEBP2) (Q09028 whole entry partner): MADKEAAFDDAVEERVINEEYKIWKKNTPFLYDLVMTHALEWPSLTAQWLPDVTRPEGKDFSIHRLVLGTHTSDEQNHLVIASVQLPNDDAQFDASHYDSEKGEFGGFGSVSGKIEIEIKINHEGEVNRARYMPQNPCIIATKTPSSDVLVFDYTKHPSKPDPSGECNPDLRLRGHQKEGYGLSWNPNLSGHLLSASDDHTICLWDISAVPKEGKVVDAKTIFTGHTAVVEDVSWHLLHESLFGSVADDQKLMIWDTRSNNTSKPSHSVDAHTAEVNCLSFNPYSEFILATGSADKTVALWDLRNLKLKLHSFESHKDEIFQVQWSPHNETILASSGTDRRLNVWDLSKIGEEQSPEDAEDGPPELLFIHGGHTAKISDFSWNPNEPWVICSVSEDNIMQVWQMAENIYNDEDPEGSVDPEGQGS
Sequence of PRC2 complex (EZH2 Y641F/EED/SUZ12/RbAp48/AEBP2) (Q6ZN18 whole entry partner): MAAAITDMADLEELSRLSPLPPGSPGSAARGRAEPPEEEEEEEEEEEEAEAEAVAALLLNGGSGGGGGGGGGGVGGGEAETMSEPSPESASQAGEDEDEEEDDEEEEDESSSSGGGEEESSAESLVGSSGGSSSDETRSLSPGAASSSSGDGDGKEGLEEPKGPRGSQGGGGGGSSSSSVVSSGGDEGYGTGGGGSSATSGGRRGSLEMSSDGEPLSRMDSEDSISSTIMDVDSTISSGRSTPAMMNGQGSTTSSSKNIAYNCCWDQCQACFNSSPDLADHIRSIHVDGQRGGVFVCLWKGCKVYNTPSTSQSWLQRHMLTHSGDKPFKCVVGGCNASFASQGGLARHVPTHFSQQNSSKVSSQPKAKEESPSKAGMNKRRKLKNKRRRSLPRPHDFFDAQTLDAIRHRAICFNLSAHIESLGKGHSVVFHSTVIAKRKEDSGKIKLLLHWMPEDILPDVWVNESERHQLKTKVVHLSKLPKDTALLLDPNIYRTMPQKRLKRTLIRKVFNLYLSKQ

Row | Compound | IC50
1 | Cc1cc(C)c(CNC(=O)c2cc3cc(-c4cc5c(s4)CCNC5)cn3c(C(C)N3CCOCC3)c2C)c(=O)[nH]1 (centres unmarked) [Example 115, N-((4,6-dimethyl-2-oxo-1,2-dihydropyridin-3-yl)methyl)-6-methyl-5-(1-morpholinoethyl)-2-(4,5,6,7-tetrahydrothieno[3,2-c]pyridin-2-yl)indolizine-7-carboxamide] | < 100 nM
2 | COc1cc(C)[nH]c(=O)c1CNC(=O)c1cc2cc(-c3cncn3C)cn2c(C(C)N2CCN(CC(F)(F)F)CC2)c1C (centres unmarked) [Example 137, N-((4-Methoxy-6-methyl-2-oxo-1,2-dihydropyridin-3-yl)methyl)-6-methyl-2-(1-methyl-1H-imidazol-5-yl)-5-(1-(4-(2,2,2-trifluoroethyl)piperazin-1-yl)ethyl)indolizine-7-carboxamide] | < 100 nM
3 | Cc1cc(C)c(CNC(=O)c2cc3cc(-c4ccncc4)cn3c(C(C)N3CCC(N(C)C)CC3)c2C)c(=O)[nH]1 (centres unmarked) [Example 93, N-((4,6-dimethyl-2-oxo-1,2-dihydropyridin-3-yl)methyl)-5-(1-(4-(dimethylamino)piperidine-1-yl)ethyl)-6-methyl-2-(pyridin-4-yl)indolizine-7-carboxamide] | < 100 nM
4 | CCN(c1c(C)c(C(=O)NCc2c(C)cc(C)[nH]c2=O)cc2cc(Br)cn12)C1CCOCC1 [Example 58, 2-bromo-N-((4,6-dimethyl-2-oxo-1,2-dihydropyridin-3-yl)methyl)-5-(ethyl(tetrahydro-2H-pyran-4-yl)amino)-6-methylindolizine-7-carboxamide] | 100 to 1000 nM
5 | COc1cc(C)[nH]c(=O)c1CNC(=O)c1cc2cc(-c3nccn3C)cn2c(C(C)N2CCN(CC(F)(F)F)CC2)c1C (centres unmarked) [Example 109, N-((4-methoxy-6-methyl-2-oxo-1,2-dihydropyridin-3-yl)methyl)-6-methyl-2-(1-methyl-1H-imidazol-2-yl)-5-(1-(4-(2,2,2-trifluoroethyl)piperazin-1-yl)ethyl)indolizine-7-carboxamide] | 100 to 1000 nM

Same assay, conditions: read-out: IC50 (EZH2_Y641F); EZH2 Y641F PRC2 complex, HTRF; class symbols

Row | IC50 | Compound
6 | < 100 nM | COc1cc(C)[nH]c(=O)c1CNC(=O)c1cc2c(-c3cnc(C)nc3)ccn2c([C@H](C)N2CCN(CC(F)(F)F)CC2)c1C (single isomer, unassigned) [Compound 197, (S)—N-((4-methoxy-6-methyl-2-oxo-1,2-dihydropyridin-3-yl)methyl)-6-methyl-1-(2-methylpyrimidin-5-yl)-5-(1-(4-(2,2,2-trifluoroethyl)piperazin-1-yl)ethyl)indolizine-7-formamide or (R)—N-((4-methoxy-6-methyl-2-oxo-1,2-dihydropyridin-3-yl)methyl)-6-methyl-1-(2-methylpyrimidin-5-yl)-5-(1-(4-(2,2,2-trifluoroethyl)piperazin-1-yl)ethyl)indolizine-7-formamide]
7 | 100 to 1000 nM | N-((4,6-dimethyl-2-oxo-1,2-dihydropyridin-3-yl)methyl)-2-(4-((dimethylamino)methyl)phen yl))-6-methyl-5-(1-morpholinoethyl)indolizine-7-carboxamide [Example 75]
8 | 100 to 1000 nM | CCN1CCN(C(C)c2c(C)c(C(=O)NCc3c(C)cc(C)[nH]c3=O)cc3cc(Br)cn23)CC1 (centres unmarked) [Example 99, N-((4,6-dimethyl-2-oxo-1,2-dihydropyridin-3-yl)methyl)-6-methyl-5-(1-(4-ethylpiperazine)-1-ethyl)-2-bromoindolizine-7-carboxamide]
9 | < 100 nM | N-((4,6-dimethyl-2-oxo-1,2-dihydropyridin-3-yl)methyl)-2-(3-((dimethylamino)methyl)phen yl))-6-methyl-5-(1-morpholineethyl)indolizine-7-amide [Example 74]
10 | 100 to 1000 nM | Cc1cc(C)c(CNC(=O)c2cc3cc(-c4ccnn4C)cn3c(C(C)N3CCN(CC(F)(F)F)CC3)c2C)c(=O)[nH]1 (centres unmarked) [Example 84, N-((4,6-dimethyl-2-oxo-1,2-dihydropyridin-3-yl)methyl)-6-methyl-2-(1-methyl-1H-pyrazole-5-yl)-5-(1-(4-(2,2,2-trifluoroethyl)piperazin-1-yl)ethyl)indolizine-7-carboxamide]
11 | < 100 nM | Cc1cc(C)c(CNC(=O)c2cc3cccn3c(C(C)OCc3ccnn3C)c2C)c(=O)[nH]1 (centres unmarked) [Example 21]
12 | < 100 nM | COc1cc(C)[nH]c(=O)c1CNC(=O)c1cc2c(-c3ncnn3C)ccn2c(C(C)N2CCN(CC(F)(F)F)CC2)c1C (centres unmarked) [Compound 183, N-((4-methoxy-6-methyl-2-oxo-1,2-dihydropyridin-3-yl)methyl)-6-methyl-1-(1-methyl-1H-1,2,4-triazol-5-yl)-5-(1-(4-(2,2,2-trifluoroethyl)piperazin-1-yl)ethyl)indolizine-7-carboxamide]
13 | 100 to 1000 nM | COc1cc(C)[nH]c(=O)c1CNC(=O)c1cc2c(-c3ccnc(N(C)C)c3)ccn2c([C@H](C)N2CCN(CC(F)(F)F)CC2)c1C (single isomer, unassigned) [Compound 172, (S)-1-(2-(dimethylamino)pyridin-4-yl)-N-((4-methoxy-6-methyl-2-oxo-1,2-dihydropyridine-3-yl)methyl)-6-methyl-5-(1-(4-(2,2,2-trifluoroethyl)piperazin-1-yl)ethyl)indolizine-7-carboxamide or (R) 1-(2-(dimethylamino)pyridin-4-yl)-N-((4-methoxy-6-methyl-2-oxo-1,2-dihydropyridine-3-yl)methyl)-6-methyl-5-(1-(4-(2,2,2-trifluoroethyl)piperazin-1-yl)ethyl)indolizine-7-carboxamide]
14 | 100 to 1000 nM | Cc1cc(C)c(CNC(=O)c2cc3cc(Br)cn3c(C(C)N3CCC(N4CCCC4)CC3)c2C)c(=O)[nH]1 (centres unmarked) [Example 145, 2-bromo-N-((4,6-dimethyl-2-oxo-1,2-dihydropyridin-3-yl)methyl)-6-methyl-5-(1-(4-(pyrrolidin-1-yl)piperidin-1-yl)ethyl)indolizine-7-carboxamide]
15 | 100 to 1000 nM | CNc1ccc(-c2ccn3c([C@H](C)N4CCN(CC(F)(F)F)CC4)c(C)c(C(=O)NCc4c(OC)cc(C)[nH]c4=O)cc23)cn1 (single isomer, unassigned) [Compound 164, (S)—N-((4-methoxy-6-methyl-2-oxo-1,2-dihydropyridin-3-yl)methyl)-6-methyl-1-(6-(methylamino)pyridin-3-yl)-5-(1-(4-(2,2,2-trifluoroethyl)piperazin-1-yl)ethyl)indolizine-7-formamide or (R)—N-((4-methoxy-6-methyl-2-oxo-1,2-dihydropyridin-3-yl)methyl)-6-methyl-1-(6-(methylamino)pyridin-3-yl)-5-(1-(4-(2,2,2-trifluoroethyl)piperazin-1-yl)ethyl)indolizine-7-formamide]
16 | 100 to 1000 nM | Cc1cc(C)c(CNC(=O)c2cc3cccn3c(C(C)OC3C=CCCC3)c2C)c(=O)[nH]1 (centres unmarked) [Example 7, 5-((cyclohex-2-en-1-yloxy)ethyl)-N-((4,6-dimethyl-2-oxo-1,2-dihydropyridin-3-yl)methyl)-6-methylindolizine-7-carboxamide]
17 | 100 to 1000 nM | Cc1cc(C)c(CNC(=O)c2cc3cccn3c(C(C)OC3CCCCC3)c2C)c(=O)[nH]1 (centres unmarked) [Example 8, 5-(1-(cyclohexyloxy)ethyl)-N-((4,6-dimethyl-2-oxo-1,2-dihydropyridin-3-yl)methyl)-6-methylindolizine-7-carboxamide]
18 | 100 to 1000 nM | Cc1cc(C)c(CNC(=O)c2cc3cc(Br)cn3c(C(C)N3CCN(C(=O)CO)CC3)c2C)c(=O)[nH]1 (centres unmarked) [Example 101]

Row | Compound | IC50
19 | Cc1cc(C)c(CNC(=O)c2cc3cc(-c4cncn4C)cn3c(C(C)N3CCOCC3)c2C)c(=O)[nH]1 (centres unmarked) [Example 86, N-((4,6-dimethyl-2-oxo-1,2-dihydropyridin-3-yl)methyl)-6-methyl-2-(1-methyl-1H-imidazole-5-yl)-5-(1-morpholinoethyl)indolizine-7-carboxamide] | < 100 nM
20 | COc1ccc(-c2cc3cc(C(=O)NCc4c(C)cc(C)[nH]c4=O)c(C)c(C(C)N4CCOCC4)n3c2)c(F)c1 (centres unmarked) [Example 43, N-((4,6-dimethyl-2-oxo-1,2-dihydropyridin-3-yl)methyl)-2-(2-fluoro-4-methoxyphenyl)-6-methyl-5-(1-morphinolinylethyl)indolizine-7-carboxamide] | < 100 nM
21 | COc1ccc(F)c(-c2cc3cc(C(=O)NCc4c(C)cc(C)[nH]c4=O)c(C)c(C(C)N4CCOCC4)n3c2)c1 (centres unmarked) [Example 124, N-((4,6-dimethyl-2-oxo-1,2-dihydropyridin-3-yl)methyl)-2-(2-fluoro-5-methoxyphenyl)-6-methyl-5-(1-morpholinoethyl)indolizine-7-carboxamide] | 100 to 1000 nM
22 | Cc1cc(C)c(CNC(=O)c2cc3cc(-c4cccnc4)cn3c(C(C)N3CCC(N(C)C)CC3)c2C)c(=O)[nH]1 (centres unmarked) [Example 48, N-((4,6-dimethyl-2-oxo-1,2-dihydropyridin-3-yl)methyl)-6-methyl-5-(1-morphinolinylethyl)-2-(tetrahydro-2H-pyran-4-yl)indolizine-7-carboxamide] | < 100 nM
23 | Cc1cc(C)c(CNC(=O)c2cc3cc(-c4cn(C)cn4)cn3c(C(C)N3CCOCC3)c2C)c(=O)[nH]1 (centres unmarked) [Example 51, N-((4,6-dimethyl-2-oxo-1,2-dihydropyridin-3-yl)methyl)-6-methyl-5-(1-morphinolinylethyl)-2-(pyridin-2-yl)indolizine-7-carboxamide] | < 100 nM
24 | CCN(c1c(C)c(C(=O)NCc2c(C)cc(C)[nH]c2=O)cc2cc(-c3ccccc3)cn12)C1CCOCC1 [Example 63] | 100 to 1000 nM
25 | (S)-1-Chloro-N-((4,6-dimethyl-2-oxo-1,2-dihydropyridin-3-yl)methyl)-6-methyl-5-(1-morphinolinylethyl)pyridazin-7-carboxamide or (R)-1-chloro-N-((4,6-dimethyl-2-oxo-1,2-dihydro)pyridin-3-yl)methyl)-6-methyl-5-(1-morphinolinylethyl)pyridazin-7-carboxamide [Example 28] | < 100 nM
26 | Cc1cc(C)c(CNC(=O)c2cc3c(-c4ccc(N5CCOCC5)cc4)ccn3c(C(C)N3CCOCC3)c2C)c(=O)[nH]1 (centres unmarked) [Example 118, N-((4,6-dimethyl-2-oxo-1,2-dihydropyridin-3-yl)methyl)-1-(4-(dimethylamine)phenyl)-6-methyl-5-(1-morpholinylethyl)indolizine-7-carboxamide] | < 100 nM

From patent US10968215B2 (SHANGHAI HAIHE PHARMACEUTICAL CO., LTD., priority 2016, dated 2021)
